{"source": "patent US20060105013A1", "about": "“Osteopontin-coated surfaces and methods of use” (priority 2000, published 2006)", "tested_on": "HOS cells", "experiment": "Western blot of osteopontin and BSP secreted into extracellular matrix by HOS cells on coated Ti disks", "assay_type": "cell-based, human", "protocol": "Osteopontin and BSP were extracted from the extracellular matrix of HOS cells cultured on Ti disks or Ti disks coated with the recombinant Opn with lysis buffer (20 mM phosphate buffer, pH, 7.2, containing 150 mM NaCI, 0.1% SDS, 1 mM phenylmethylsulfonyl fluoride, 5 mM benzamidine, 0.1 mM e-amino caproic acid, 0.1 b-hydroxy mercuribenzoate, 0.1 mM pyrophosphate, 1 mM sodium fluoride, 1 mM sodium orthovanadate and 10 mM EDTA). Samples were then processed for Gel electrophoresis.\nWestern blot analysis: Cell layer proteins and conditioned media was electrophoresed in 10% SDS-polyacrylamide slab gels at 150 volts for 4 h. For Western blot analysis resolved proteins in gels were transferred by semi-dry blotting onto nitrocellulose membranes (Schleicher & Schuell, Keene, N H), gel transfers were carried out for 90 min. at 12 V in 0.025 M Tris-glycine buffer, pH 8.2, containing 20% methanol and 0.01% Tween 20 and 10% nonfat dry milk, then incubated with rabbit anti-mouse osteopontin (Ashkar S, et al., New York Academy of Science 760:296-298, 1995) in 20 mM Phosphate buffer, pH 7.4, containing 150 mM NaCL, 0.1% Tween 20 and 1% nonfat dry milk. […] Nonspecific interaction was assessed by the interaction of the primary and secondary antibodies with rabbit serum albumin. […]", "data": [{"substance": "rhOPN: human recombinant phosphorylated form of osteopontin", "values": [{"measurement": "OPN secretion into the extracellular matrix (Western blot)", "setting": "HOS cells on coated Ti disks vs uncoated titanium controls", "value": "increased secretion of OPN"}, {"measurement": "BSP extracellular matrix secretion (Western blot)", "setting": "HOS cells on rhOPN coated implants, control groups did not express BSP", "value": "less marked than the production of osteopontin"}]}]}
